# Assay results as given in publication PMC7893915, “Assessing cross-resistance within the pyrethroids in terms of their interactions with key cytochrome P450 enzymes and resistance in vector populations” (Parasites & Vectors, 2021).
# Where two headings read alike, the source gives them in different places.
# Experiments:
# [1] = tested on: An. funestus strain, FUMOZ-R; set-up: method as in PMID 26930058; settings: strain with upregulated P450 levels without any target-site mutations; ref [47]; cited from earlier work
# Anopheles arabiensis = settings: F0, larval collection, Sudan, WHO Bioassay 1998, ref Abdalla H et al. Parasites Vectors. 2014;7:213, cited from earlier work
# [2] = tested on: CYP6M2, CYP6P3 and CYP6P9a; assay: Pyrethroid metabolism (insecticide depletion), across CYP6M2, CYP6P3 and CYP6P9a; assay type: in vitro ADME, Anopheles gambiae and An. funestus; settings: mean ± SD across CYP6M2, CYP6P3, CYP6P9a
# Source text: In this study, the half maximal inhibitory concentration (IC50), which provides a value for inhibition of each P450 by each pyrethroid (also referred to as ‘binding affinity’), and the percentage depletion, which gives a value for metabolism of each pyrethroid by each P450 (also referred to as vulnerability to metabolic attack), were both included as parameters to establish a P450s structural activity relationship model. This model was used to understand both the chemistry of the pyrethroids and the interaction with mosquito P450s that function as monooxygenases in metabolic resistance, to predict cross-resistance liabilities in vivo. […] A low percentage depletion indicates low metabolism of the pyrethroid, which means that it may be less vulnerable to resistance mediated by P450s.
# The values for percentage depletion (metabolism) of each pyrethroid by three of the enzymes CYP6M2, CYP6P3 and CYP6P9a, which were expressed in a single plasmid construct, were also extracted from the same sources and used for the comparative analysis.
# CYP6M2 = settings: Incubation time 2h; mean ± SD; ref [38], [41]; cited from earlier work
# CYP6P3 = settings: Incubation time 2h; mean ± SD; ref [38], [41]; cited from earlier work
# CYP6P9a = settings: Incubation time 2h; mean ± SD; ref [38], [41]; cited from earlier work
SMILES,"effectiveness with or without piperonyl butoxide (PBO), in words [1]","mortality (Anopheles arabiensis; 10/2009-11/2009, El Managil)","mortality (Anopheles arabiensis; 10/2009-11/2009, Rufaa)","mortality (Anopheles arabiensis; 10/2009-11/2009, Wad El Hadad)","mortality (Anopheles arabiensis; 10/2010-11/2010, Wad El Hadad)","mortality (Anopheles arabiensis; 10/2010-11/2010, Wad Medani)",% Insecticide depletion Mean across P450s [2],% Insecticide depletion CYP6M2 (CYP6M2),% Insecticide depletion CYP6P3 (CYP6P3),% Insecticide depletion CYP6P9a (CYP6P9a)
CC1(C)C(C=C(Cl)Cl)C1C(=O)OC(C#N)c1ccc(F)c(Oc2ccccc2)c1 (stereo not drawn) [ß-cyfluthrin],only effective when partnered with PBO,,,,,,,,,
"Clc1ccc(C(c2ccc(Cl)cc2)C(Cl)(Cl)Cl)cc1 [DDT, dichlorodiphenyltrichloroethane]",,93,58,74,69,70,,,,
"CNC(=O)Oc1cccc2c1OC(C)(C)O2 [bend, bendiocarb]",,100,100,100,100,100,,,,
CC1(C)C(C=C(Cl)Cl)C1C(=O)OC(C#N)c1cccc(Oc2ccccc2)c1 (stereo not drawn) [Cypermethrin],only effective when partnered with PBO,,,,,,74.9 ± 33.3%,36.8 ± 1.8%,98.4 ± 0.1%,89.5 ± 2.7%
"COP(=S)(OC)Oc1ccc([N+](=O)[O-])c(C)c1 [feni, fenitrothion]",,100,100,100,100,100,,,,
